One experiment deals with T1, mouse AIM2 protein (Mus musculus, UniProt Q91VJ1).
T1 construct: a mouse full-length AIM2 protein is expressed and purified firstly by pET28A vector; made in house
T1 sequence (Q91VJ1 1-354): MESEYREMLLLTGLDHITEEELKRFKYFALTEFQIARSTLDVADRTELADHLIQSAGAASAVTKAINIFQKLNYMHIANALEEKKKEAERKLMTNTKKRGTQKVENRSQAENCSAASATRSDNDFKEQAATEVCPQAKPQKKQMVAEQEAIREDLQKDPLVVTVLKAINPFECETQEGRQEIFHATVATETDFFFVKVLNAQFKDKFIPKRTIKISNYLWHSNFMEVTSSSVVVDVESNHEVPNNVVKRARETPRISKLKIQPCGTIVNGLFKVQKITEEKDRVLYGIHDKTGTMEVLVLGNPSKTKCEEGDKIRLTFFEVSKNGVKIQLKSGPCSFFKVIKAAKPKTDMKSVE
Put plainly: Affinity by SPR (Biacore, CM5 chip amino coupling), mouse AIM2. The settings on record: mouse full-length AIM2 protein, read-out: binding constant KD. The method, then:
In the embodiment of the disclosure, the affinity between T6S1683 and mouse AIM2 protein is detected. Specifically, a mouse full-length AIM2 protein is expressed and purified firstly by pET28A vector, and then the affinity is determined by CM5 chip amino coupling method by the SPR method of Biacore.

A further experiment deals with T2, human AIM2 protein (Homo sapiens, UniProt O14862).
T2 construct: a human full-length AIM2 protein is expressed and purified firstly by pET28A vector; made in house
T2 sequence (O14862 1-343): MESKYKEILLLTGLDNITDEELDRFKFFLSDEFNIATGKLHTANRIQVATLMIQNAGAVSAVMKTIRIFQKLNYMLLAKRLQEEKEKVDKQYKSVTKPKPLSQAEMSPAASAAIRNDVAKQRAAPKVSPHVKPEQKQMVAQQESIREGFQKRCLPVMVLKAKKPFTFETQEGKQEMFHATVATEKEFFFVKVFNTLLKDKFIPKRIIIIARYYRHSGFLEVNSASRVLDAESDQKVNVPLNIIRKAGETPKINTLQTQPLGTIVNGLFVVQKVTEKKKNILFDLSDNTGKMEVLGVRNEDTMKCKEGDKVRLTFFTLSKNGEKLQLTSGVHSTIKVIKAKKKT
Put plainly: Affinity by SPR (Biacore, CM5 chip amino-coupling), human AIM2. The note with it: human full-length AIM2 protein, read-out: binding constant KD. The method, then:
In the embodiment of the disclosure, the affinity between T6S1683 and human AIM2 protein is detected. Specifically, a human full-length AIM2 protein is expressed and purified firstly by pET28A vector, and then the affinity is determined by CM5 chip amino-coupling method through a surface-plasmon resonance (SPR) method of Biacore.

Experiment [1] deals with AIM2 downstream protein in HaCat cells. The experiment can be described thus: AIM2 downstream protein expression in HaCaT cells (Western Blot, ELISA). It is filed as cell-based. The settings on record: 10 uM. (In general: A western blot detects proteins with antibodies after separation by electrophoresis.)
For another experiment, the system named is HaCaT cells. Put plainly: Cell state (pyroptosis) of OligodA-T transfected HaCaT cells under microscope. It is filed as cell-based. The note with it: 10 uM, microscope 100×.
Experiment [2] relates to IL-1β gene expression in the mouse skin. Put plainly: Transcription levels of AIM2 pathway genes in skin of IMQ mice. It is filed as in vivo, C57/BL6 mice. The settings on record: 5 mg/kg, smeared on skin. How it is done: (§1) In the embodiment of the disclosure, dimethyl sulfoxide (DMSO) is used to dissolve T6S1683 powder, the powder is weighed according to different dosage, then diluted with β-cyclodextrin, and a final concentration of DMSO shall not exceed 5%. The dose gradients of T6S1683 set are 0 mg/kg, 1 mg/kg, 2.5 mg/kg, 5 mg/kg and 10 mg/kg respectively. Each mouse is calculated as 20 grams (g), and 0 mg/kg, 1 mg/kg, 2.5 mg/kg, 5 mg/kg and 10 mg/kg of T6S1683 are administered respective mice every day.
(§2) Seven-week-old C57/BL6 mice are selected, fed and modeled in a […] (SPF) environment. The experimental groups are as follows. […]
(§3) Six mice in each group above, and the mice are shaved back hair to make an exposed skin reach 4 square centimeters. […] The mouse skins are scored every day, the mice are sacrificed on Day 6, and skin tissue is taken for a series of tests.

For a further experiment, the system named is IMQ mice. The experiment can be described thus: IMQ psoriasis mouse model: PASI scores, skin and pathological phenotypes. The format is in vivo, C57/BL6 mice. How it is done:
as §1
Seven-week-old C57/BL6 mice are selected, fed and modeled in a […] (SPF) environment. The experimental groups are as follows. (a) mouse skin smeared with IMQ and 0 mg/kg of T6S1683; (b) mouse skin smeared with IMQ and 1 mg/kg of T6S1683; (c) mouse skin smeared with IMQ and 2.5 mg/kg of T6S1683; (d) mouse skin smeared with IMQ and 5 mg/kg of T6S1683; (e) mouse skin smeared with IMQ and 10 mg/kg of T6S1683; (f) mouse skin smeared with Vaseline and 0 mg/kg of T6S1683; (g) mouse skin smeared with Vaseline and 1 mg/kg of T6S1683; (h) mouse skin smeared with Vaseline and 2.5 mg/kg of T6S1683; (i) mouse skin smeared with Vaseline and 5 mg/kg of T6S1683; and (j) mouse skin smeared with Vaseline and 10 mg/kg of T6S1683. (Note: the daily dosage of IMQ in groups (a), (b), (c), (d) and (e) is 62.5 mg/mouse, and the daily dosage of Vaseline in groups (f), (g), (h), (i) and (j) is 62.5 mg/mouse.)
Six mice in each group above, and the mice are shaved back hair to make an exposed skin reach 4 square centimeters. A start date of the experiment is set as Day 0 and an end date is set as Day 6. From Day 0 to Day 5, 500 μL medicine solution is applied daily and evenly smeared mouse skin to absorb, with 500 uL applied in the morning at a dose of 150 uL, at noon at 200 uL, and at night at 150 uL. […] The mouse skins are scored every day, the mice are sacrificed on Day 6, and skin tissue is taken for a series of tests. […]

Experiment [3] deals with IL-1β mRNA in HaCaT cells. The experiment can be described thus: Real-time fluorescence PCR of IL-1β mRNA in HaCaT cells stimulated by OligodA-T. It is filed as cell-based. The settings on record: 10 uM, 24 hours. How it is done: The protective ability of 44 compounds screened above against cell pyroptosis of HaCaT cells stimulated by OligodA-T is evaluated by the real-time fluorescent quantitative polymerase chain reaction (PCR) detection of IL-1β mRNA in the stimulated cells. […] Positive control (PC) and negative control (NC) are set in the experimental group. An inclusion of Lip3000 (Lipofectamine™ 3000 Transfection Reagent) and OligodA-T (OligodA-T: Lip3000:P3000=1:1:25, a concentration of OligodA-T is 1 microgram per […] abbreviated as ug/mL) is used to transfect HaCat cells. […] Each experimental group is incubated in a cell incubator containing 5% CO2 for 24 hours at 37° C., and the cells are collected for real-time fluorescence PCR detection.
• (1) A positive control (PC), a negative control (NC) and respective treatment groups are set. […] The HaCat cells are co-transfected with inclusions of Lip3000-OligodA-T at gradient doses (0.1 uM, 1 uM, 5 uM, 10 uM and 25 uM) of T6S1683 in the respective treatment groups. • (2) The positive control (PC), the negative control (NC) and the respective treatment groups are incubated in a cell incubator containing 5% CO2 at 37° C. for 24 hours, and the cells are collected for real-time fluorescence PCR detection to observe the effects of different doses of inhibitors on the activation of AIM2 pathway in the HaCaT cells.

In experiment [4] the test system is TCRγ/CD3^+RORγt cells in the lymphocytes of mouse skin. Put plainly: Flow cytometry of skin lymphocytes of IMQ mice. It is filed as in vivo, C57/BL6 mice. The settings on record: 5 mg/kg, smeared on skin. How it is done: as §1, §2, §3
Next, skin lymphocytes of the mice in each group (proportion of TCRγ/CD3^+RORγt cells in the lymphocytes of mouse skin, which are the main effector cells mediated by AIM2 pathway in psoriasis and can secrete a large amount of IL-17 cytokines to aggravate psoriasis) are detected by flow cytometry.
On the technique in general: Flow cytometry measures light scatter and fluorescence of single cells or particles in a stream.

Molecules are shown by their SMILES.

A word on the Kd: it is the constant that tells how readily two partners part at equilibrium. `COc1cc(/C=C/C(=O)CC(=O)/C=C/c2ccc(O)cc2)ccc1O` [T6S1683, 1,6-heptadiene-3,5-dione,1-(4-hydroxy-3-methoxyphenyl)-7-(4-hydroxyphenyl)-,(1E, 6E)-]: the results for the Kd on mouse AIM2 protein and on human AIM2 protein were 5.12 µM and 1.56 µM, respectively. The “expression of AIM2 downstream protein (Western Blot)” value in experiment [1] is listed as “slightly decreases”. In experiment [1], the “secretion of IL-1β (ELISA)” value was “inhibitory effect”. The cell state entry in the experiment on HaCaT cells is “close to that of the NC group”. Moreover, the “IL-1β gene expression level in mouse skin” value in experiment [2] was “significantly down-regulated”. Further, the “effect on inflammatory phenotype of IMQ mice” value in the experiment on IMQ mice (1 mg/kg, smeared on skin) is “no difference”. In addition, the “reduction effect on inflammatory phenotype of IMQ mice” value in the experiment on IMQ mice (5 mg/kg, smeared on skin) is “the most significant”. Moreover, the “inflammatory phenotype of IMQ mice” value with IMQ mice (three doses, smeared on skin daily Day 0 to Day 5) was “reduced the inflammatory phenotype of IMQ mice to varying degrees”. For the same compound, the “IL-β transcription levels compared to the PC group” value in experiment [3] (among 5 dose gradients (0.1, 1, 5, 10, 25 uM)) is “reduced IL-β transcription levels in the HaCat cells the most”. For the same compound, the “inhibitory effect on IL-1β mRNA compared with the positive control” value in experiment [3] (screening of 44 compounds, OligodA-T 1 ug/mL) was “most significant inhibitory effect”. The “proportion of TCRγ/CD3^+RORγt compared with IMQ mice without T6S1683” value in experiment [4] is given as “significantly lower”.

For the origin of these results see US12343318B2, “Use of compound or medicinal derivative thereof in inhibiting AIM2 protein activity” (Liangdan Sun, priority 2023, dated 2025).
